Data published in ChEMBL document CHEMBL1201862, “PubChem BioAssay data set” (2004).
Active and inactive are the calls of the source.

Columns and labels:
[1] = molecular target: Glyceraldehyde-3-phosphate dehydrogenase (Homo sapiens, UniProt P04406)
Bcl-2-related protein A1 [2] = molecular target: T1, Bcl-2-related protein A1 (Mus musculus, UniProt Q07440); assay: Bfl-1 inhibitors blocking BH3 peptide binding, confirmation, biochemical, TR-FRET, mouse Bfl-1 (AID 621);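 further: TR-FRET binding of GST-Bfl-1 to FITC-labelled Bid peptide via terbium antibody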
T1 sequence (Q07440 whole entry): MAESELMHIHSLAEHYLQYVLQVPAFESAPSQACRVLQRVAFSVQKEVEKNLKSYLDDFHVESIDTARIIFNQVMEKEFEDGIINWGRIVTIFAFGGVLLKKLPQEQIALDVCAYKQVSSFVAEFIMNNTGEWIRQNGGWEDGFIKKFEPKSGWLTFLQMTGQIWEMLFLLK

Bcl-2-related protein A1 [3] = molecular target: T1, Bcl-2-related protein A1; assay: Bfl-1 binding inhibitors, SAR follow-up, biochemical, fluorescence polarization (AID 1070)
Prothrombin = Prothrombin (Homo sapiens, UniProt P00734); assay: Thrombin 1536 HTS Dose Response Confirmation. [Related pubchem assays: 1046 (Thrombin 1536 HTS; hits were confirmed in this assay)]; format: functional
[4] = molecular target: Disintegrin and metalloproteinase domain-containing protein 17 (Homo sapiens, UniProt P78536); assay: exosite inhibitors of ADAM17, dose response, biochemical (AID 743260)
[5] = ADAM10 protease inhibitors, dose response, selectivity assay for ADAM17 exosite inhibitor project, biochemical, FRET peptide substrate, recombinant human ADAM10 (AID 743259);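 further: ADAM10 enzyme cleaving a FRET peptide substrate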
cells [6] = format: functional, cell-based
[7] = molecular target: T2, Trace amine-associated receptor 1 (Homo sapiens, UniProt Q96RJ0); assay: Fluorescence-based cell-based high throughput dose response assay to identify agonists of the human trace amine associated receptor 1 (TAAR1).; format: functional
T2 sequence (Q96RJ0 whole entry): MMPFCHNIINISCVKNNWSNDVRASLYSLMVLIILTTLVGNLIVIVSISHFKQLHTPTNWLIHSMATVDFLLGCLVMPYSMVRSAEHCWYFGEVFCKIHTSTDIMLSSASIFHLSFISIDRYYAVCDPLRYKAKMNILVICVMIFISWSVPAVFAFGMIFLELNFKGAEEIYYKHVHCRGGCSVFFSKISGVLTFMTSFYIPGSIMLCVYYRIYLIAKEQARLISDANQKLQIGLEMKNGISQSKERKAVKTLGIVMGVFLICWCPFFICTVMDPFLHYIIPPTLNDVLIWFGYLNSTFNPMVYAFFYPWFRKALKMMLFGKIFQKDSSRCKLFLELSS

[8] = molecular target: T2, Trace amine-associated receptor 1; assay: Counterscreen for agonists of the human trace amine associated receptor 1 (hTAAR1): Fluorescence-based cell-based high throughput dose response assay to identify hTAAR1 agonist that also desensitize TAAR1 receptor response.; format: functional
cells [9] = format: functional, cell-based; remark: listed apart in the source
[10] = Vero cell cytotoxicity, dose response, cytotoxicity control for Vif-APOBEC3G degradation inhibitor project, Vero cells (AID 1117358); format: functional; conditions: Human immunodeficiency virus 1, Vero
[11] = cytotoxicity in HEK-293T cells, dose response, cytotoxicity control for TCR NF-kB inhibitor project, luminescence, T-cell screen hits (AID 489026); format: functional, cell-based;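 further: cells exposed to compound about 14 hours before the viability readout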
fMet-Leu-Phe receptor = molecular target: T3, fMet-Leu-Phe receptor (Homo sapiens, UniProt P21462); assay: FPR ligands, dose response (AID 519); format: functional
T3 sequence (P21462 whole entry): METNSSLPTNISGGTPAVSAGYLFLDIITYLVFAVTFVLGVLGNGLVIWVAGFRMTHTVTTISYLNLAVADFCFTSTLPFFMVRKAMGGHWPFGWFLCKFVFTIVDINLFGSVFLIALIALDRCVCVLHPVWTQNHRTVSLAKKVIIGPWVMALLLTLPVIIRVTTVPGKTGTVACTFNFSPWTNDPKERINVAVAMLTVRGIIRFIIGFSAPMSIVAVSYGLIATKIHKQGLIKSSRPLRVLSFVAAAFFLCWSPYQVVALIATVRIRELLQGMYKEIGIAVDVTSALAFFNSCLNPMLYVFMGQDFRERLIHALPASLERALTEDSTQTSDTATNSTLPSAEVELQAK

Cytochrome P450 2D6 = Cytochrome P450 2D6 (Homo sapiens, UniProt P10635); assay: qHTS Assay for Inhibitors and Substrates of Cytochrome P450 2D6. [Related pubchem assays: 410 ]; format: ADME; conditions: read-out: Potency
[12] = A549 cell cytotoxicity, dose response, cytotoxicity control, plate reader, cherry-pick, antagonist series (AID 743412); format: functional, cell-based
[13] = HepG2 cell cytotoxicity, dose response, cytotoxicity control, plate reader, cherry-pick, antagonist series (AID 743416); format: functional, cell-based
[14] = MC4R antagonists, dose response, counter-screen for LGR2 antagonist project, cell-based, plate reader, cherry pick (AID 743444); format: functional;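 further: transfected HEK 293 cells stimulated with alpha-MSH peptide; potency of inhibitors of the alpha-MSH evoked signal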
Cytochrome P450 2C9 = Cytochrome P450 2C9 (Homo sapiens, UniProt P11712); conditions: Potency
[15] = molecular target: Eukaryotic translation initiation factor 4E (Mus musculus, UniProt P63073); assay: eIF4E–eIF4G protein interaction inhibitors, dose response, biochemical, TR-FRET (AID 855); format: functional;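 further: potency for disrupting eIF4E binding to eIF4GI seen as loss of FRET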
HEK293 = assay: inhibitors of LMP1-driven NF-kB reporter, dose response, cell-based, HEK293, luciferase, cherry-pick (AID 588343); format: functional; conditions: Homo sapiens
[16] = LGR2 antagonists, dose response, cell-based, HEK293, CRE-luciferase reporter, cherry pick, set 2 (AID 743343); format: functional;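 further: transfected cells were stimulated with diluted bursicon conditioned medium after compound addition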
[17] = HEp-2 cell cytotoxicity, dose response, cytotoxicity control for RSV inhibitor project, HTS (AID 2410); format: functional; conditions: human respiratory syncytial virus
H9c2 = assay: cells; format: functional, cell-based; conditions: Rattus norvegicus, H9c2, Myocardium;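 further: confirmatory concentration-response retest of ultra-high-throughput screening hits for modulation of myocardial damage; cell death induced by hydrogen peroxide oxidative stress; compound pretreatment for 60 min then peroxide exposure for 2 h; potency is for protecting the cells against peroxide damage rather than for killing them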
Paired box protein Pax-8 = Paired box protein Pax-8 (Homo sapiens, UniProt Q06710); assay: inhibitors of PAX8-driven TPO luciferase reporter, dose response, RMG-I cells, cherry-pick (AID 687027); format: functional, cell-based;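 further: luciferase reporter driven by Pax8 target thyroperoxidase promoter measured by SteadyGlo luminescence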
[18] = NIH:OVCAR-3 ovarian cancer cell cytotoxicity, dose response, PAX8 inhibitor project, plate reader, dry powder samples (AID 743044); format: functional, cell-based
[19] = IGROV1 ovarian cancer cell cytotoxicity, dose response, PAX8 inhibitor project, plate reader, dry powder samples (AID 743043); format: functional, cell-based; conditions: IGROV-1

Sequence of Cytochrome P450 2C9 (P11712 whole entry): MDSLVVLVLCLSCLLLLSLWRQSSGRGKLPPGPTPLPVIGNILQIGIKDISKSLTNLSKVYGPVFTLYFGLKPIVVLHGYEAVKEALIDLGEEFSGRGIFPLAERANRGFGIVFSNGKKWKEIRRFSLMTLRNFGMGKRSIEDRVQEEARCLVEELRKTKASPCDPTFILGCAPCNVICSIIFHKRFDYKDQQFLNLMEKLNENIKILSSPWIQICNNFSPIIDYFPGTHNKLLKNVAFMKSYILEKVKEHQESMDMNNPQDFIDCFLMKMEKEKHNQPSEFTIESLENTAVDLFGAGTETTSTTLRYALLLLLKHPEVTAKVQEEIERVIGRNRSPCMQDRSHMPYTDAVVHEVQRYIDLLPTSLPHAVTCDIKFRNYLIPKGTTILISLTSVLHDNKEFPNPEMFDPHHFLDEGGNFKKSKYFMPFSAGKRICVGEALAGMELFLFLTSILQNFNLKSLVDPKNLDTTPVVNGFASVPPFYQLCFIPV
Sequence of Disintegrin and metalloproteinase domain-containing protein 17 (P78536 whole entry, the tested form may be a part): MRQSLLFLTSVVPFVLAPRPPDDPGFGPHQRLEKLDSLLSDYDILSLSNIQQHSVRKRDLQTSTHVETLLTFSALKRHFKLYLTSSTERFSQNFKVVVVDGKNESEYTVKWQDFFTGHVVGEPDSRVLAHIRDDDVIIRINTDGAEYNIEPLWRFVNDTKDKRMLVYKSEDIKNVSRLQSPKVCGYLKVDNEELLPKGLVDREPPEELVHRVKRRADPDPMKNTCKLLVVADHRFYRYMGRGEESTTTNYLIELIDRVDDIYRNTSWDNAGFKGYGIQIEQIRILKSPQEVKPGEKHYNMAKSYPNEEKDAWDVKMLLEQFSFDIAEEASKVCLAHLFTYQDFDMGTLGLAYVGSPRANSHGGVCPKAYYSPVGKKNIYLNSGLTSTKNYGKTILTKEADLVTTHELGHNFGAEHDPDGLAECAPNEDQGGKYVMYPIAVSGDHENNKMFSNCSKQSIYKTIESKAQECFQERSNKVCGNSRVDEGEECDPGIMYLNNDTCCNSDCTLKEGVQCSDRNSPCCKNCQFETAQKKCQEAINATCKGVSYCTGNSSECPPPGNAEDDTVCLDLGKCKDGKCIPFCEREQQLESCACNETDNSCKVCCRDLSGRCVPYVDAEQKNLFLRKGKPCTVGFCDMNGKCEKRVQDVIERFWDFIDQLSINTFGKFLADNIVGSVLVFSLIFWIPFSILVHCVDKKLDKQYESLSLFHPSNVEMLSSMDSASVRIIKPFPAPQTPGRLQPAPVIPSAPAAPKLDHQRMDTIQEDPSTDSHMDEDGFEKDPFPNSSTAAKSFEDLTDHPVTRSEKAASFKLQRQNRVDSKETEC
Sequence of Glyceraldehyde-3-phosphate dehydrogenase (P04406 whole entry): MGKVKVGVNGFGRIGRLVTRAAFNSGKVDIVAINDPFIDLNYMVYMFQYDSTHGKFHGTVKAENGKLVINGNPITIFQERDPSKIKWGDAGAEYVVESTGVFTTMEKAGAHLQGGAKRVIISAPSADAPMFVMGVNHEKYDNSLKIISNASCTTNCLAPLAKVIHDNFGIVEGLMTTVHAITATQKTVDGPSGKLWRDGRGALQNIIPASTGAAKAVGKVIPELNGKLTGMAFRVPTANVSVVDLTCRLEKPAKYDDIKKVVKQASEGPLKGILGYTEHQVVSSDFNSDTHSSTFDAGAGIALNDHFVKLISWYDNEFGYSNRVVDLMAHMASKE
Sequence of Cytochrome P450 2D6 (P10635 whole entry): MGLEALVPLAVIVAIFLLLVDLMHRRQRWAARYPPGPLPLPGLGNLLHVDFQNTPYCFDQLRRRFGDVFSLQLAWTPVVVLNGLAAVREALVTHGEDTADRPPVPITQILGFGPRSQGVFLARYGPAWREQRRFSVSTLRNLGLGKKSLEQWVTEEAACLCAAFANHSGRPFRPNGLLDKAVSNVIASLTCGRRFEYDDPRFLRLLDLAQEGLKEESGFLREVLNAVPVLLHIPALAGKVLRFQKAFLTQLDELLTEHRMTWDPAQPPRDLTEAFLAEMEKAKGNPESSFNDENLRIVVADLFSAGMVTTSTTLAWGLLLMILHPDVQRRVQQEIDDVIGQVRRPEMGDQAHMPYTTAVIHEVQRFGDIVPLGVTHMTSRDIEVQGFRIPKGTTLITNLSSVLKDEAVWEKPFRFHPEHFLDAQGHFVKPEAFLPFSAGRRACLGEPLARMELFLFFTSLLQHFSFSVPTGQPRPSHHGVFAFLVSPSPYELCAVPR
Sequence of Paired box protein Pax-8 (Q06710 whole entry): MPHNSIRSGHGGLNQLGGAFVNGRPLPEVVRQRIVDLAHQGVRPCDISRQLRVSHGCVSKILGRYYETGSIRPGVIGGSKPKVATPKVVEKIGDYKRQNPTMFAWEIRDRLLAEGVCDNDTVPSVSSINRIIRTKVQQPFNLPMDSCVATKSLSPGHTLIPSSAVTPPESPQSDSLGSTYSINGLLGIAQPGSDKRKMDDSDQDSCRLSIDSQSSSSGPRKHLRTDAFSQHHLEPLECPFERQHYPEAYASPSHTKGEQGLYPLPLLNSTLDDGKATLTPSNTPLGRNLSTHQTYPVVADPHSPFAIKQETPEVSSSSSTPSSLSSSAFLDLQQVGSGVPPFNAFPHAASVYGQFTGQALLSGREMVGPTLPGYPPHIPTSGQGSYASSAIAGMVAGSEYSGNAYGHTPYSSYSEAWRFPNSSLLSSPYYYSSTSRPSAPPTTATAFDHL
Sequence of Eukaryotic translation initiation factor 4E (P63073 whole entry): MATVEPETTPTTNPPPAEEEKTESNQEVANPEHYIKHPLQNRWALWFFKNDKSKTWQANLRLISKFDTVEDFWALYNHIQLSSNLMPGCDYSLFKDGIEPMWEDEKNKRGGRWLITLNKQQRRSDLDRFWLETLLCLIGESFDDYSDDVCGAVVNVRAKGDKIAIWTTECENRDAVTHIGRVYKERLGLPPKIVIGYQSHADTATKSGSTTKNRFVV

O=C1C(Cl)=C(Cl)C(=O)N1c1ccc(C(F)(F)F)cc1
IC50 [1]: > 100 µM (not active) | IC50 (Bcl-2-related protein A1 [2]): 1.46 µM (active) | IC50 (Bcl-2-related protein A1 [3]): 0.999 µM (active)

COCC(=O)n1nc(-c2ccccc2)nc1NCc1ccccc1
IC50 (Prothrombin): 0.246 µM (active)

COc1ccc(NS(=O)(=O)c2cc(NC(=O)c3cccs3)ccc2N2CCCC2)cc1
IC50 [4]: > 69.5 µM (inactive) | IC50 [5]: > 69.5 µM (inactive)

NC(Cc1ccccc1)c1csc(Nc2ccc(C(=O)NCCO)cc2)n1 (configuration not stated)
IC50 (cells [6]): > 29.9 µM (inactive) | EC50 [7]: 4.32 µM (active) | IC50 [8]: > 29.9 µM (inactive) | EC50 (cells [9]): > 29.9 µM (inactive)

O=c1c2ccccc2c(-c2ccccc2)nn1-c1cc(Cl)ccc1[N+](=O)[O-]
CC50 [10]: > 40 µM (active)

COc1ccc(-n2nnnc2-c2ccccc2)cc1
IC50 [11]: > 80 µM (inactive) | CC50 [10]: > 40 µM (active)

Cc1ccc(C(=O)OC2CCS(=O)(=O)c3sccc32)cc1 (configuration not stated)
CC50 [10]: 32.7 µM (active)

O=C1C(Cl)=C(N2CCOCC2)C(=O)N1c1cc(Cl)cc(Cl)c1
IC50 [1]: > 10 µM (inconclusive) | IC50 (Bcl-2-related protein A1 [2]): 1.33 µM (active) | IC50 (Bcl-2-related protein A1 [3]): 1.63 µM (active)

CC1Oc2ccccc2N(Cc2ccccc2Cl)C1=O (configuration not stated)
Ki (fMet-Leu-Phe receptor): > 66.7 µM (inactive)

CN1C(=O)CSc2ccc(NC(=O)NCc3cccnc3)cc21
CC50 [10]: > 40 µM (active)

O=C(Nc1ccccc1)Nc1ccncc1
IC50 (cells [6]): > 29.9 µM (inactive) | EC50 [7]: 1.02 µM (active) | IC50 [8]: 7.05 µM (active) | EC50 (cells [9]): > 29.9 µM (inactive)

c1ccc(Nc2cc(-c3ccoc3)ncn2)cc1
AC50 (Cytochrome P450 2D6): 20 µM (inconclusive)

O=C1C2CC=CCC2C(=O)N1c1nc(-c2ccco2)n[nH]1 (configuration not stated)
IC50 [1]: > 100 µM (not active)

CCCCN(Cc1ccccc1)S(=O)(=O)c1cc2c(cc1Br)CC(C)N2C(C)=O (configuration not stated)
AC50 [12]: 28.8 µM (active) | AC50 [13]: 46 µM (active) | IC50 [4]: > 69.5 µM (inactive) | AC50 [14]: 58.1 µM (active) | IC50 [5]: 12.6 µM (inactive)

Cc1cc(N/N=C/c2ccccc2O)nc(N2CCOCC2)n1
IC50 (cells [6]): > 29.9 µM (inactive) | EC50 [7]: > 29.9 µM (inactive) | IC50 [8]: 2.52 µM (active) | EC50 (cells [9]): > 29.9 µM (inactive)

C=C1C(=O)O[C@H]2C[C@@]3(C)CCCC(=C)[C@@H]3C[C@H]12
AC50 (Cytochrome P450 2D6): 10 µM (inconclusive) | AC50 (Cytochrome P450 2C9): 39.8 µM (inconclusive)

O=C(c1ccccc1)N(Nc1ccccc1)c1ccccc1
IC50 [15]: 50 µM (inactive)

CC(C)[C@@H](CC(=O)N[C@@H]1CCCC[C@H]1C(=O)N[C@H](CC(=O)N[C@@H](CCC(=O)O)CC(=O)O)Cc1ccccc1)NC(=O)C[C@H](Cc1ccccc1)NC(=O)[C@@H]1CNCC[C@H]1N
AC50 (Cytochrome P450 2C9): 6.31 µM (inconclusive)

C=CC1=C(C)C2=NC/1=C\C1=[N+]3[Zn-2][N+]4=C(/C=C5N=C(/C=C3/C(CCC(=O)O)=C1C)C(CCC(=O)O)=C\5C)C(C)=C(C=C)/C4=C/2
AC50 (Cytochrome P450 2D6): 25.1 µM (inconclusive) | AC50 (Cytochrome P450 2C9): 39.8 µM (inconclusive)

COc1cc(SC)ccc1C(=O)NCCOc1ccc(C)c(C)c1
IC50 [4]: > 69.5 µM (inactive) | IC50 [5]: 27.5 µM (inactive)

O=C(Nc1nc2cc3c(cc2s1)OCO3)c1ccco1
IC50 (Prothrombin): 9.57 µM (active) | AC50 (HEK293): 1.57 µM (active) | AC50 [12]: > 52 µM (inactive) | AC50 [13]: > 52 µM (inactive) | AC50 [16]: 4.2 µM (active) | AC50 [14]: 4.79 µM (active)

Cc1ccc(NC(=O)C2CCCN2S(=O)(=O)c2cccc3cccnc23)cc1F (configuration not stated)
CC50 [17]: 39.4 µM (active) | Ki (fMet-Leu-Phe receptor): > 66.7 µM (inactive)

COc1ccc2nc(O)c(-c3nnn(-c4ccc(F)cc4)n3)cc2c1
IC50 (Bcl-2-related protein A1 [2]): > 100 µM (not active) | IC50 (Bcl-2-related protein A1 [3]): > 100 µM (not active) | IC50 (H9c2): 37.1 µM (inactive)

Clc1ccc(-n2nnc(-c3cccnc3)n2)cn1
IC50 (Bcl-2-related protein A1 [2]): > 100 µM (not active) | IC50 (Bcl-2-related protein A1 [3]): > 100 µM (not active)

COc1cccc(S(=O)(=O)Nc2ccc3c(c2)[C@@H]2C[C@@H](CC(=O)NCc4ccc(Cl)cc4)O[C@@H](CO)[C@@H]2O3)c1
AC50 (Paired box protein Pax-8): 3.36 µM (active) | AC50 [18]: 25.9 µM (active) | AC50 [19]: 60.3 µM (active)

COc1ccc2c(=O)c(N3C(=O)c4ccccc4C3=O)c(C)oc2c1
Ki (fMet-Leu-Phe receptor): > 66.7 µM (inactive)

O=C(C1=C(O)C(=O)N(c2ncccn2)C1c1ccc(Cl)cc1)c1ccco1 (configuration not stated)
Ki (fMet-Leu-Phe receptor): > 66.7 µM (inactive)

CCCCCCCCN1C(=O)[C@@H](CC(=O)NCCc2ccccc2OC)C[C@@]2(C(=O)OC)C1=C[C@H](C1CCCC1)O[C@@H]2C
IC50 (cells [6]): > 29.9 µM (inactive) | EC50 [7]: 3.22 µM (active) | IC50 [8]: 8.54 µM (active) | EC50 (cells [9]): > 29.9 µM (inactive)

COc1cccc(CN(C)C(=O)CCc2nnc(-c3ccsc3)o2)c1
IC50 (Prothrombin): > 50 µM (not active)

O=C(C[n+]1ccccc1)Nc1nc2ccccc2s1
IC50 [4]: > 69.5 µM (inactive) | IC50 [5]: > 69.5 µM (inactive)
